# Measured values published in patent publication EP0025288A1, “Derivatives of monic acid, processes for their preparation, compositions containing them and their preparation” (priority 1979, dated 1981).
# Assays:
# Assay type in all cases: cell-based
# [1] = system: M. gallisepticum S6; experiment: MIC, anti-mycoplasmal, Friis broth solidified with 0.9% agarose; conditions: inoculum 10^3 to 10^5 C.F.U., 6 days incubation at 37°C
# [2] = system: S typhimurium S18; experiment: MIC, veterinary bacteria; conditions: veterinary bacteria (Table 2)
# [3] = system: Staph aureus Oxford; experiment: MIC, veterinary bacteria; conditions: veterinary bacteria (Table 2)
# [4] = system: Strep pyogenes A R80/421; experiment: MIC, human bacteria, serial dilution in nutrient agar; conditions: Strep pyogenes A R80/421 (footnote b); nutrient agar containing 5% 'chocolated' horse blood
# [5] = system: Ps aeruginosa 10662; experiment: as above; conditions: nutrient agar containing 5% 'chocolated' horse blood
# [6] = system: M. suipneumoniae Str. 11; experiment: MIC, anti-mycoplasmal, Friis broth solidified with 0.9% agarose; conditions: inoculum 10^3 to 10^5 C.F.U., 6 days incubation at 37°C
# [7] = system: Staph aureus Oxford; experiment: MIC, human bacteria, serial dilution in nutrient agar; conditions: nutrient agar containing 5% 'chocolated' horse blood
# [8] = system: E coli ESS; experiment: as above; conditions: nutrient agar containing 5% 'chocolated' horse blood
# [9] = system: E coli NCTC 10418; experiment: as above; conditions: nutrient agar containing 5% 'chocolated' horse blood
# [10] = system: M. bovigenitalium ATCC 14173; experiment: MIC, anti-mycoplasmal, Friis broth solidified with 0.9% agarose; conditions: inoculum 10^3 to 10^5 C.F.U., 6 days incubation at 37°C
# [11] = system: M. suipneumoniae LABER; experiment: as above; conditions: inoculum 10^3 to 10^5 C.F.U., 6 days incubation at 37°C
# [12] = system: M. suipneumoniae ATCC 25095; experiment: as above; conditions: inoculum 10^3 to 10^5 C.F.U., 6 days incubation at 37°C
# [13] = system: Corynebacterium pyogenes CY1; experiment: MIC, veterinary bacteria; conditions: veterinary bacteria (Table 2)
# [14] = system: Strep agalactiae SPA1; experiment: MIC, veterinary bacteria; conditions: veterinary bacteria (Table 2)
# [15] = system: Staph aureus Russell; experiment: MIC, human bacteria, serial dilution in nutrient agar; conditions: nutrient agar containing 5% 'chocolated' horse blood
# [16] = system: Bacillus subtilis 6633; experiment: as above; conditions: nutrient agar containing 5% 'chocolated' horse blood
# [17] = system: M. suipneumoniae TAM 6N; experiment: MIC, anti-mycoplasmal, Friis broth solidified with 0.9% agarose; conditions: inoculum 10^3 to 10^5 C.F.U., 6 days incubation at 37°C
# [18] = system: M. pneumoniae ATCC 15492; experiment: as above; conditions: inoculum 10^3 to 10^5 C.F.U., 6 days incubation at 37°C
# [19] = system: E coli E1; experiment: MIC, veterinary bacteria; conditions: veterinary bacteria (Table 2)
# [20] = system: Strep dysgalaciae SPD1; experiment: MIC, veterinary bacteria; conditions: veterinary bacteria (Table 2)
# [21] = system: M. suipneumoniae PW/C/210; experiment: MIC, anti-mycoplasmal, Friis broth solidified with 0.9% agarose; conditions: inoculum 10^3 to 10^5 C.F.U., 6 days incubation at 37°C
# [22] = system: M. suipneumoniae HK(2); experiment: as above; conditions: inoculum 10^3 to 10^5 C.F.U., 6 days incubation at 37°C
# [23] = system: Staph aureus W2827; experiment: MIC, human bacteria, serial dilution in nutrient agar; conditions: nutrient agar containing 5% 'chocolated' horse blood
# [24] = system: Past multocida PA2; experiment: MIC, veterinary bacteria; conditions: veterinary bacteria (Table 2)
# [25] = system: Strep uberis SPU1; experiment: MIC, veterinary bacteria; conditions: veterinary bacteria (Table 2)
# [26] = system: E coli NCTC 10418; experiment: MIC, veterinary bacteria; conditions: veterinary bacteria (Table 2)
# [27] = system: Strep suis (group D) SPS11; experiment: MIC, veterinary bacteria; conditions: veterinary bacteria (Table 2)
# [28] = system: Strep faecalis I; experiment: MIC, human bacteria, serial dilution in nutrient agar; conditions: nutrient agar containing 5% 'chocolated' horse blood
# [29] = system: Bord bronchiseptica BO8; experiment: MIC, veterinary bacteria; conditions: veterinary bacteria (Table 2)
# [30] = system: M. hyorhinis ATCC 23234; experiment: MIC, anti-mycoplasmal, Friis broth solidified with 0.9% agarose; conditions: inoculum 10^3 to 10^5 C.F.U., 6 days incubation at 37°C
# [31] = system: Pasteurella multocida 1633; experiment: MIC, human bacteria, serial dilution in nutrient agar; conditions: nutrient agar containing 5% 'chocolated' horse blood
# [32] = system: Strep pneumoniae CN33; experiment: as above; conditions: nutrient agar containing 5% 'chocolated' horse blood
# [33] = system: Past multocida PA1; experiment: MIC, veterinary bacteria; conditions: veterinary bacteria (Table 2)
# [34] = system: S dublin S7; experiment: MIC, veterinary bacteria; conditions: veterinary bacteria (Table 2)
# [35] = system: M. suipneumoniae NCTC 10110; experiment: MIC, anti-mycoplasmal, Friis broth solidified with 0.9% agarose; conditions: inoculum 10^3 to 10^5 C.F.U., 6 days incubation at 37°C
# [36] = system: Past Haemolytica PA5; experiment: MIC, veterinary bacteria; conditions: veterinary bacteria (Table 2)
# [37] = system: Strep pyogenes C 641848; experiment: MIC, human bacteria, serial dilution in nutrient agar; conditions: Strep pyogenes C 641848 (footnote c); nutrient agar containing 5% 'chocolated' horse blood
# [38] = system: M. suipneumoniae JF 435; experiment: MIC, anti-mycoplasmal, Friis broth solidified with 0.9% agarose; conditions: inoculum 10^3 to 10^5 C.F.U., 6 days incubation at 37°C
# [39] = system: M. suipneumoniae NB12; experiment: as above; conditions: inoculum 10^3 to 10^5 C.F.U., 6 days incubation at 37°C
# [40] = system: M. hyosynoviae ATCC 25591; experiment: as above; conditions: inoculum 10^3 to 10^5 C.F.U., 6 days incubation at 37°C
# [41] = system: Haemophilus influenzae Wy21; experiment: MIC, human bacteria, serial dilution in nutrient agar; conditions: nutrient agar containing 5% 'chocolated' horse blood
# [42] = system: Bord bronchisptica BO9; experiment: MIC, veterinary bacteria; conditions: veterinary bacteria (Table 2)
# [43] = system: Staph aureus 152 (pen sens); experiment: MIC, veterinary bacteria; conditions: veterinary bacteria (Table 2)
# [44] = system: Neisseria catarrhalis 1502; experiment: MIC, human bacteria, serial dilution in nutrient agar; conditions: Neisseria catarrhalis 1502 (footnote a); nutrient agar containing 5% 'chocolated' horse blood
# [45] = system: Strep pyogenes B 2788; experiment: as above; conditions: nutrient agar containing 5% 'chocolated' horse blood
# [46] = system: M. hyorhinis ATCC 25021; experiment: MIC, anti-mycoplasmal, Friis broth solidified with 0.9% agarose; conditions: inoculum 10^3 to 10^5 C.F.U., 6 days incubation at 37°C
# [47] = system: Staph aureus B4 (pen resis); experiment: MIC, veterinary bacteria; conditions: veterinary bacteria (Table 2)
# [48] = system: M. bovis NCTC 10131; experiment: microbe, parasite or virus in culture; conditions: M. bovis NCTC 10131; inoculum 10^3 to 10^5 C.F.U., 6 days incubation at 37°C
# [49] = system: Corynebacterium zerosis 9755; experiment: MIC, human bacteria, serial dilution in nutrient agar; conditions: nutrient agar containing 5% 'chocolated' horse blood
# [50] = system: M. dispar NCTC 10125; experiment: MIC, anti-mycoplasmal, Friis broth solidified with 0.9% agarose; conditions: inoculum 10^3 to 10^5 C.F.U., 6 days incubation at 37°C
# [51] = system: K aerogenes A; experiment: MIC, human bacteria, serial dilution in nutrient agar; conditions: nutrient agar containing 5% 'chocolated' horse blood
# [52] = system: M. suipneumoniae MS 16; experiment: MIC, anti-mycoplasmal, Friis broth solidified with 0.9% agarose; conditions: inoculum 10^3 to 10^5 C.F.U., 6 days incubation at 37°C
# [53] = system: Erysipelothrix rhusiopathiae NCTC 8163; experiment: MIC, veterinary bacteria; conditions: veterinary bacteria (Table 2)
# [54] = system: M. suipneumoniae J2206/183b; experiment: MIC, anti-mycoplasmal, Friis broth solidified with 0.9% agarose; conditions: inoculum 10^3 to 10^5 C.F.U., 6 days incubation at 37°C
# [55] = system: M. suipneumoniae UCD 1; experiment: as above; conditions: inoculum 10^3 to 10^5 C.F.U., 6 days incubation at 37°C
# [56] = system: P mirabilis 889; experiment: MIC, human bacteria, serial dilution in nutrient agar; conditions: nutrient agar containing 5% 'chocolated' horse blood
substance,measurement,setting,value
Cyclohexan-4-onyl monate A [Example 8],in vitro MIC,[1],5.0 µg/mL
same,MIC,[2],>80 µg/mL
same,MIC,[3],1.25 µg/mL
same,MIC,[4],^b0.5 µm/ml
same,MIC,[5],>100 µm/ml
same,in vitro MIC,[6],0.25 µg/mL
same,MIC,[7],1.0 µm/ml
same,MIC,[8],0.5 µm/ml
same,MIC,[9],>100 µm/ml
same,in vitro MIC,[10],0.025 µg/mL
same,in vitro MIC,[11],0.25 µg/mL
same,in vitro MIC,[12],0.25 µg/mL
same,MIC,[13],>80 µg/mL
same,MIC,[14],.625 µg/mL
same,MIC,[15],2.5 µm/ml
same,MIC,[16],0.5 µm/ml
same,in vitro MIC,[17],0.5 µg/mL
same,in vitro MIC,[18],1.0 µg/mL
same,MIC,[19],>80 µg/mL
same,MIC,[20],.156 µg/mL
same,in vitro MIC,[21],0.25 µg/mL
same,in vitro MIC,[22],0.5 µg/mL
same,MIC,[23],2.5 µm/ml
same,MIC,[24],.156 µg/mL
same,MIC,[25],.312 µg/mL
same,MIC,[26],>80 µg/mL
same,MIC,[27],2.5 µg/mL
same,MIC,[28],25.0 µm/ml
same,MIC,[29],80 µg/mL
same,in vitro MIC,[30],0.25 µg/mL
same,MIC,[31],0.5 µm/ml
same,MIC,[32],0.5 µm/ml
same,MIC,[33],.312 µg/mL
same,MIC,[34],>80 µg/mL
same,in vitro MIC,[35],0.5 µg/mL
same,MIC,[36],5 µg/mL
same,MIC,[37],^c0.5 µm/ml
same,in vitro MIC,[38],0.5 µg/mL
same,in vitro MIC,[39],0.25 µg/mL
same,in vitro MIC,[40],0.1 µg/mL
same,MIC,[41],0.1 µm/ml
same,MIC,[42],20 µg/mL
same,MIC,[43],1.25 µg/mL
same,MIC,[44],^a0.5 µm/ml
same,MIC,[45],0.5 µm/ml
same,in vitro MIC,[46],0.25 µg/mL
same,MIC,[47],2.5 µg/mL
same,in vitro MIC,[48],0.025 µg/mL
same,MIC,[49],>100 µm/ml
same,in vitro MIC,[50],0.1 µg/mL
same,MIC,[51],>100 µm/ml
same,in vitro MIC,[52],0.25 µg/mL
same,MIC,[53],10 µg/mL
same,in vitro MIC,[54],0.5 µg/mL
same,in vitro MIC,[55],0.5 µg/mL
same,MIC,[56],100 µm/ml
